pIC50: −log10 of the molar value.

For this assay, the target named is T1, human sodium/iodide symporter (hNIS) (Homo sapiens, UniProt Q92911).
T1 sequence (Q92911 1-643): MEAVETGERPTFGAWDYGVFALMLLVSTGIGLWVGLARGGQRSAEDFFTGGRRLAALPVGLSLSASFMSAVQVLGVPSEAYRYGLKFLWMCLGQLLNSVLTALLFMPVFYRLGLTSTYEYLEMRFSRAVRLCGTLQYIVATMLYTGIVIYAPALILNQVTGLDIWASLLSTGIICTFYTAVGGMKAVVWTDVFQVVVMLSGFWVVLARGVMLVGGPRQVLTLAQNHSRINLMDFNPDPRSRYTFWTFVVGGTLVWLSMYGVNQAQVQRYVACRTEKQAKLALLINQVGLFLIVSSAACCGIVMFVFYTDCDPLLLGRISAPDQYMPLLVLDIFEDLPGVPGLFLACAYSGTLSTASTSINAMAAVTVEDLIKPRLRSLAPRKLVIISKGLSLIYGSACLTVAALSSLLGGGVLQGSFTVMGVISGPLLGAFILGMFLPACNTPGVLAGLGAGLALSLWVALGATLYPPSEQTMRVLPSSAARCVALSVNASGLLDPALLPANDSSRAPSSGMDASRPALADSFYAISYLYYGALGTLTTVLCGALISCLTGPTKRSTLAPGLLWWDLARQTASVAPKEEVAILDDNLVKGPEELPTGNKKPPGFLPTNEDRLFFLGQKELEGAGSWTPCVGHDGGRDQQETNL
In kind it is cell-based.

In turn, `F[B-](F)(F)F` [tetrafluoroborate] had a pIC50 of 6.13.

For the origin of these results see publication PMC6219699 (Nuclear medicine communications, 2011).
